Assay results reported in the RepoRT retention time repository.
Counter-ions that a name gives are not always drawn.

Assay: HILIC, Merck SeQuant ZIC-HILIC, 25 °C, 0.25 mL/min; A: water + 16 mM ammonium formate; B: acetonitrile + 0.1% formic acid, pH 3; gradient (min/%B) 0/97 2/97 10/70 15/10 17/10 18/97 25/97
Settings: stereoisomer not certain

Structure (SMILES) | LC retention time [min]
C[n+]1cccc(C(N)=O)c1 [1-METHYLNICOTINAMIDE] | 12.8
O=C(O)c1c(O)cccc1O [2-6-Dihydroxybenzoic acid] | 2.07
NCCCCN=C(N)N [AGMATINE SULFATE] | 17.2
Oc1cc(O)c2c(c1)OC(c1ccc(O)c(O)c1)C(O)C2 (single isomer, unassigned; (+)) [(+)-Catechin hydrate] | 9.95
NCCC(=O)NC(Cc1cnc[nH]1)C(=O)O (stereo not drawn) [CARNOSINE] | 16
CC(C)=CC(=O)SCCNC(=O)CCNC(=O)C(O)C(C)(C)COP(=O)(O)OP(=O)(O)OCC1OC(n2cnc3c(N)ncnc32)C(O)C1OP(=O)(O)O (stereo not drawn) [3-METHYLCROTONYL-COA] | 13.4
CCCCCCCCCCCCCCCCCCOCC(O)COP(=O)([O-])OCC[N+](C)(C)C (stereo not drawn) [C18_LysoPAF] | 11.3
Nc1ccn(C2CC(O)C(COP(=O)([O-])OP(=O)([O-])[O-])O2)c(=O)n1 (stereo not drawn) [DEOXYCYTIDINE-DIPHOSPHATE] | 15.2
O=C(O)Cc1cccc(O)c1 [3-HYDROXYPHENYLACETATE] | 2.15
CC(=O)C1(O)CCC2C3CC=C4CC(O)CCC4(C)C3CCC21C (stereo not drawn) [17a-Hydroxypregnenolone_H2] | 2.17
Cn1cncc1CC(NC(=O)CCN)C(=O)O (stereo not drawn) [ANSERINE] | 16.1
NC(Cc1cc(I)c(Oc2ccc(O)cc2)c(I)c1)C(=O)O [3-5-DIIODO-L-THYRONINE] | 9.3
O=C(O)c1ccc(CO)o1 [5-hydroxymethyl-2-furancarboxylic acid] | 4.31
NC1(C(=O)O)CCCCC1 [1-Aminocyclohexanecarboxylic acid] | 11.7
NC(=O)c1ccc[n+](C2OC(COP(=O)(O)OP(=O)(O)OCC3OC(n4cnc5c(N)ncnc54)C(O)C3O)C(O)C2O)c1 (stereo not drawn) [BETA-NICOTINAMIDE ADENINE DINUCLEOTIDE] | 14.6
Cc1cnc(=O)[nH]c1N [5-METHYLCYTOSINE] | 11.6
Nc1ccn(C2OC(CO)C3OP(=O)(O)OC32)c(=O)n1 (stereo not drawn) [CYTIDINE 2'-3'-CYCLIC PHOSPHATE] | 13.6
Nc1ccc(C(=O)NCC(=O)O)cc1 [Aminohippuric acid] | 5.96
NC(CCSCC(N)C(=O)O)C(=O)O (stereo not drawn) [CYSTATHIONINE] | 15.4
O=C[C@H](O)[C@H](O)CO [D-(-)-Erythrose] | 8.22
O=C1CC(C(=O)O)NC(=O)N1 (stereo not drawn) [DIHYDROOROTATE] | 10.6
C[N+](C)(C)CCOP(=O)(O)OP(=O)([O-])OCC1OC(n2ccc(N)nc2=O)C(O)C1O (stereo not drawn) [CITICOLINE] | 15.7
O=c1cccc[nH]1 [2-HYDROXYPYRIDINE] | 2.15

Structure (SMILES) | LC retention time [min]
CC(CCC(=O)O)C1CCC2C3C(=O)CC4CC(O)CCC4(C)C3CC(O)C12C (stereo not drawn) [5b-cholanic acid-3a-12a-DIOL-7-ONE] | 2.17
CC(=O)N[C@@H]1[C@@H](O)[C@H](O)[C@@H](CO)O[C@H]1N [2-ACETAMIDO-2-DEOXY-BETA-D-GLUCOSYLAMINE] | 14.5
Nc1ccccc1C(=O)O [ANTHRANILATE] | 1.84
Cn1cnc2[nH]c(=O)[nH]c(=O)c21 [7-Methylxanthine] | 2.21
CCC(C)C(=O)C(=O)O (stereo not drawn) [3-METHYL-2-OXOVALERATE] | 1.73
NC(Cc1ccc(O)c(O)c1)C(=O)O [3-4-DIHYDROXY-L-PHENYLALANINE] | 13.4
NC(CS)C(=O)NCC(=O)O (stereo not drawn) [CYS-GLY_2M] | 16.3
NC1CCSC1=O (stereo not drawn) [HOMOCYSTEINE THIOLACTONE] | 11.8
N[C@@H](Cc1ccc(O)c([N+](=O)[O-])c1)C(=O)O [3-NITRO-L-TYROSINE] | 11.1
O=C(O)c1ccc(O)cc1O [2-4-Dihydroxybenzoic acid] | 2.18
O=c1ccn(C2CC(O)C(COP(=O)(O)O)O2)c(=O)[nH]1 (stereo not drawn) [DEOXYURIDINE-MONOPHOSPHATE] | 13.4
CC(CCCC(C)(C)O)C1CCC2C3CC=C4CC(O)CCC4(C)C3CCC12C (stereo not drawn) [25-HYDROXYCHOLESTEROL] | 1.6
CCCCCCCCCCCCCCCCCC(=O)OCC(O)COP(=O)([O-])OCC[N+](C)(C)C (stereo not drawn) [18-0_LysoPC] | 11.2
COc1cc(CCN)ccc1O [3-METHOXYTYRAMINE] | 11
O=CC[C@@H](O)[C@H](O)[C@H](O)CO [2-DEOXY-D-GLUCOSE] | 10.2
O=C(O)C(O)COP(=O)(O)O (stereo not drawn) [3-PHOSPHOGLYCERATE] | 18.1
O=CC(O)C1OC(=O)C(O)C1O [D-GLUCURONOLACTONE] | 8.75
Cn1c(=O)c2c(ncn2C)n(C)c1=O [CAFFEINE] | 1.87
O=C(O)c1ccc(O)c(O)c1 [3-4-DIHYDROXYBENZOATE] | 2.14
O=C(O)C(O)C(O)C(O)C(O)COP(=O)(O)O (stereo not drawn) [6-PHOSPHOGLUCONATE] | 15.1
O=C(O)CCCCCCCCCCCO [OMEGA-HYDROXYDODECANOATE] | 1.7
O=C(O)C(=O)CCc1ccccc1 [2-oxo-4-phenyl-butyric acid] | 2.06

Further lines, results first:

LC retention time [min] | Structure (SMILES)
14.2 | N[C@@H](CO)C(=O)O [L-Serine]
2.79 | O=C[O-] [FORMATE]
14.2 | NC(=O)C[C@H](N)C(=O)O [L-Asparagine]
2.15 | O=C(O)CC(Cc1ccccc1)C(=O)O (racemic) [dl-benzylsuccinic acid]
11.9 | C[N+](C)(C)[O-] [trimethylamine N-oxide]
14.7 | C=C(OP(=O)(O)O)C(=O)[O-] [PHOSPHOENOLPYRUVATE]
14.9 | NCC(=O)NCC(=O)O [Gly-Gly]
1.92 | COc1ccc2[nH]cc(CCNC(C)=O)c2c1 [MELATONIN]
1.87 | Cc1cc(O)cc2c1OC(C)(CCC(=O)O)CC2 (stereo not drawn) [delta CEHC]
10.8 | Nc1nc2nc[nH]c2c(=O)[nH]1 [GUANINE]
8.89 | O=C(O)CC(O)C(=O)O (stereo not drawn) [MALATE]
4 | O=C(O)CO [GLYCOLATE]
13.7 | C[C@@H](O)[C@H](N)C(=O)O [L-Threonine]
10.9 | O=C([O-])c1cc(=O)[nH]c(=O)[nH]1 [OROTATE]
14.3 | O=C(O)CP(=O)(O)O [PHOSPHONOACETATE]
10.8 | CCCCCCCCCCCCCC=CC(O)C(COP(=O)([O-])OCC[N+](C)(C)C)NC(=O)CCCCCCCCCCCCCCCCC (stereo not drawn) [SPHINGOMYELIN]
10.3 | O=C1OC(C(O)CO)C(O)C1O [L-GULONOLACTONE]
2.16 | CC(=O)N[C@@H](Cc1ccc(O)cc1)C(=O)O [N-Acetyl-L-tyrosine]
11.2 | O=c1[nH]c(=O)c2[nH]c(=O)[nH]c2[nH]1 [URATE]
2.21 | Cn1cc(C(N)=O)ccc1=O [N-methyl-2-pyridone-5-carboxamide]
2.14 | CCOC(=O)CCNC(N)=O [ETHYL 3-UREIDOPROPIONATE]
16.5 | Cc1ncc(C[n+]2csc(CCOP(=O)([O-])OP(=O)(O)O)c2C)c(N)n1 [THIAMINE PYROPHOSPHATE]
11.4 | Nc1nc2c(ncn2C2OC(CO)C(O)C2O)c(=O)[nH]1 (stereo not drawn) [GUANOSINE]
12.4 | CC(=O)OCC(N)C(=O)O (stereo not drawn) [O-ACETYLSERINE]

LC retention time [min] | Structure (SMILES)
1.88 | O=C(O)CCCCCCCCC(=O)O [Sebacic acid]
19.5 | NCCCCNCCCN [SPERMIDINE]
1.49 | CC(=CCC1=C(C)C(=O)c2ccccc2C1=O)CCCC(C)CCCC(C)CCCC(C)C (stereo not drawn) [PHYLLOQUINONE]
1.5 | CCCCCCCCCCCCCCCC(=O)OCC(CO)OC(=O)CCCCCCCCCCCCCCC (stereo not drawn) [DIPALMITOYLGLYCEROL]
2.04 | COc1cc(CC(=O)O)ccc1O [HOMOVANILLATE]
2.77 | O=CC(O)CO (stereo not drawn) [GLYCERALDEHYDE]
14.6 | Cc1ncc(CO)c(CN)c1O [PYRIDOXAMINE]
14.3 | Cc1ncc(C[n+]2csc(CCO)c2C)c(N)n1 [THIAMINE]
13.3 | NC(=O)C1CCCN1C(=O)C(Cc1cnc[nH]1)NC(=O)C1CCC(=O)N1 (stereo not drawn) [THYROTROPIN RELEASING HORMONE]
1.53 | CCCCCCCCCCCCCCCCCCCCCCC(=O)[O-] [TRICOSANOATE]
13.9 | NCCS(=O)O [HYPOTAURINE]
8.39 | O=C(O)C(O)CO (stereo not drawn) [GLYCERATE]
13.6 | O=C(O)C(O)C(O)C(O)C(O)CO (stereo not drawn) [GLUCONATE]
3.43 | CC(=O)NC(CS)C(=O)O (stereo not drawn) [N-ACETYLCYSTEINE]
4.75 | CSCC1OC(n2cnc3c(N)ncnc32)C(O)C1O (stereo not drawn) [METHYLTHIOADENOSINE]
7.45 | O=C(O)C=CC(=O)O [fumaric acid]
8.76 | CC(=O)NC(CC(=O)O)C(=O)O (stereo not drawn) [N-ACETYLASPARTATE]
15.3 | Nc1ncnc2c1ncn2C1OC(COP(=O)(O)OP(=O)([O-])OCC2OC([n+]3cccc(C(=O)O)c3)C(O)C2O)C(O)C1OP(=O)(O)O (stereo not drawn) [NICOTINIC ACID ADENINE DINUCLEOTIDE PHOSPHATE]
13.6 | OCC1OC(OCC2OC(O)(CO)C(O)C2O)C(O)C(O)C1O (stereo not drawn) [PALATINOSE]
14.9 | NCCOP(=O)(O)O [ETHANOLAMINE PHOSPHATE]
2.19 | O=C(O)CCC(=O)O [succinic acid]
13.6 | O=C([O-])C(O)C(O)C(=O)[O-] (stereo not drawn) [MESO-TARTRATE]
2.11 | C=C(C)CCOP(=O)(O)OP(=O)(O)O [ISOPENTENYL PYROPHOSPHATE]
9.37 | O=c1c(OC2OC(CO)C(O)C(O)C2O)c(-c2ccc(O)c(O)c2)oc2cc(O)cc(O)c12 [Quercetin-3-beta-D-glucoside]
